In paper PMC11643494, “Structure–Activity Relationship Studies in a Series of 2-Aryloxy-N-(pyrimidin-5-yl)acetamide Inhibitors of SLACK Potassium Channels” (Molecules, 2024):
pIC50: −log10 of the molar value.

Columns and labels:
WT human SLACK = biological target: T1, WT human SLACK (Homo sapiens, UniProt Q5JUK3); assay: Whole-cell automated patch clamp (APC) in CHO-K1 cells stably expressing WT human SLACK; format: cell-based; conditions: for pIC50 / WT SLACK inhibition, result in words: APC; for pIC50: CHO-K1 cells stably expressing WT human SLACK, averages (n ≥ 3); for SLACK Imax: maximum inhibition at 30 µM test compound standardized to VU0606170 (set at 100%), WT human SLACK; for WT SLACK inhibition, result in words: concentrations 0.125 to 30 µM; for Fold less potent than hit 10 (SLACK inhibition): ratio of WT SLACK APC IC50 to hit 10
T1 construct: host or cells: CHO-K1
T1 sequence (Q5JUK3 1-1235 isoform Q5JUK3-3): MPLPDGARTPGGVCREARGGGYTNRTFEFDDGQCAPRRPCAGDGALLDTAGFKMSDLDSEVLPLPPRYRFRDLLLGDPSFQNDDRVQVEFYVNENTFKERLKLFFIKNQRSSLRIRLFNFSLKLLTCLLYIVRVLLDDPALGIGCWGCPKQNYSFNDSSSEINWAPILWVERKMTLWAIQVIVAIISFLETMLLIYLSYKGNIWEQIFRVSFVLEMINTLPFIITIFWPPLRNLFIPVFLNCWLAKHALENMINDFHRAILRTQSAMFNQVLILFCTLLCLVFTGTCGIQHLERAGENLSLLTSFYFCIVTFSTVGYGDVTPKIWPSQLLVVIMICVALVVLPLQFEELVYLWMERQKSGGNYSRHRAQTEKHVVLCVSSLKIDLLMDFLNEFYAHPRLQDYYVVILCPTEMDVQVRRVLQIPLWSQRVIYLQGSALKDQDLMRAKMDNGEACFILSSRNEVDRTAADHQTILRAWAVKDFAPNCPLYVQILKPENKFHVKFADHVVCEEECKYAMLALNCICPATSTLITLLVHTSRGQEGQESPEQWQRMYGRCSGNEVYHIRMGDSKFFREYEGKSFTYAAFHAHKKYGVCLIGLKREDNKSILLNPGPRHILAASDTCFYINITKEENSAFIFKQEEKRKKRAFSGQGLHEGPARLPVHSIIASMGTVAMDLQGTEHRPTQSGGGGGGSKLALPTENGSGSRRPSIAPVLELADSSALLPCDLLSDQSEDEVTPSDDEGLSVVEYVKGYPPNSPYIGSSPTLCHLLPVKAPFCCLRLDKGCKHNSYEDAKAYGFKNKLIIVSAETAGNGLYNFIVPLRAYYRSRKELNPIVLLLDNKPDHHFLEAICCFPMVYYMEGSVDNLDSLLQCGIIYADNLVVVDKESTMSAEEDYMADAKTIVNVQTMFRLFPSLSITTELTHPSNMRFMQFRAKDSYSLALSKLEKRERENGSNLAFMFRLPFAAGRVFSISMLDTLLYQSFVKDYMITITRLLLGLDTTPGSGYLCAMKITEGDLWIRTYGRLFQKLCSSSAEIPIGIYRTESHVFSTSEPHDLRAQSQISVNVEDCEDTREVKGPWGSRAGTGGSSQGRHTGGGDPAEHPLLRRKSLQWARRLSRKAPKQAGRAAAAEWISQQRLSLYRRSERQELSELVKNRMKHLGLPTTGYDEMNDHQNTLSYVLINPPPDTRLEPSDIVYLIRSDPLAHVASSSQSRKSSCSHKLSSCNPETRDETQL
Procedure: Using concentrations ranging from 0.125 to 30 µM in half-log steps, a concentration–response relationship was generated for each new analog using our APC assay in CHO-K1 cells stably expressing WT SLACK. A minimum of three cells, i.e., replicates, were collected per concentration for each analog.
Automated patch clamp recording was performed with a SyncroPatch 768 PE system (Nanion, Munich, Germany) as previously described. Whole-cell recordings were performed at room temperature. Cells were harvested by first washing with PBS without Mg^2+ or Ca^2+ (Gibco, Billings, MT, USA) to remove cell culture medium, followed by dissociation with TryPLE (Gibco, Billings, MT, USA). Cells were then resuspended and diluted to 200,000 cells/mL in external solution. External solution contained 105 mM NaCl, 4 mM KCl, 1 mM MgCl2, 5 mM CaCl2, 10 mM HEPES, 40 mM N-Methyl-D-glucamine chloride, titrated to pH 7.4 with NaOH and osmolarity of 300 mOsm/kg; internal solution contained 70 mM NaCl, 70 mM KF, 10 mM KCl, 5 mM EGTA, 5mM HEPES, titrated to a pH 7.2 with KOH and osmolarity of 295 mOsm/kg.
The APC protocol was set as following: Cells were held at […] −80 mV for 100 ms, then a ramp protocol was performed from −100 mV to 80 mV at 0.4 mV/ms, hold the cell at −80 mV for another 100 ms, then steps were performed at −20 mV, 0 mV, +20 mV, +40 mV, and +60 mV for 100 ms of each step. Whole-cell currents were measured at 0 mV and normalized to current after external buffer addition.

hERG (Kv11.1) channel = test system: hERG (Kv11.1) channel; set-up: method as in PMID 32408169; conditions: 10 µM; cited from earlier work
WT SLACK = test system: WT SLACK; set-up: method as in PMID 32408169; conditions: whole-cell patch clamp electrophysiology; read-out: IC50 versus WT SLACK; cited from earlier work
SLACK = test system: SLACK; set-up: method as in earlier work; conditions: patent application, no specific values reported; cited from earlier work

Compound | pIC50 (WT human SLACK) | SLACK Imax (WT human SLACK) | also measured
CC(C)(Oc1ccc(S(F)(F)(F)(F)F)cc1)C(=O)Nc1cnc(Oc2ccccc2F)nc1 [Analog 62] | 5.39 |  | 
CC(C)(Oc1ccc(Cl)cc1)C(=O)Nc1cnc(Sc2ccccc2F)nc1 [Analog 63] | 6.05 | 101% | 
CC(C)(Oc1ccc(Cl)cc1)C(=O)Nc1cnc(Nc2ccccc2F)nc1 [Analog 64] |  |  | WT SLACK inhibition, result in words (WT human SLACK): not tolerated
CN(c1ncc(NC(=O)C(C)(C)Oc2ccc(Cl)cc2)cn1)c1ccccc1F [Analog 65] | 5.68 |  | 
CN(c1ccc(S(C)(=O)=O)cc1)c1ncc(NC(=O)C(C)(C)Oc2ccc(Cl)cc2)cn1 [Analog 67] | 5.85 | 101% | 
CC(C)(Sc1ccc(Cl)cc1)C(=O)Nc1cnc(Oc2ccccc2F)nc1 [Analog 68] | 5.39 |  | Fold less potent than hit 10 (SLACK inhibition) (WT human SLACK): approximately 3 fold
CC(C)(Nc1ccc(Cl)cc1)C(=O)Nc1cnc(Oc2ccccc2F)nc1 [Analog 69] | 5.57 |  | Fold less potent than hit 10 (SLACK inhibition) (WT human SLACK): ~2 fold
CC(C)(Cc1ccc(Cl)cc1)C(=O)Nc1cnc(Oc2ccccc2F)nc1 [Analog 73] | 5.14 |  | Fold less potent than hit 10 (SLACK inhibition) (WT human SLACK): 5 fold
O=C(CCc1ccc(Cl)cc1)Nc1cnc(Oc2ccccc2F)nc1 [Analog 74] | 5.29 | 102% | 
O=C(COc1ccc(Cl)cc1)Nc1cnc(Oc2ccccc2F)nc1 [Analog 75] |  |  | WT SLACK inhibition, result in words (WT human SLACK): inactive
O=C(Nc1cnc(Oc2ccccc2F)nc1)C(F)(F)Oc1ccc(Cl)cc1 [Analog 79] | 5.68 |  | 
CNCc1ccc(Cl)cc1 [Analog 80] |  |  | WT SLACK inhibition, result in words (WT human SLACK): only a weak inhibitor
CN(Cc1ccc(Cl)cc1)C(=O)Nc1cnc(Oc2ccccc2F)nc1 [Analog 82] | < 5.00 | 79% | 
CC(C)(Oc1ccc(Cl)cc1)C(=O)Nc1ccc(Oc2ccccc2F)nc1 [Analog 86] | 5.51 |  | Fold less potent than hit 10 (SLACK inhibition) (WT human SLACK): ~2 fold
CC(C)(Oc1ccc(Cl)cc1)C(=O)Nc1cnc(Oc2ccccc2F)c(C#N)c1 [Analog 87] | 5.74 |  | 
CC(C)(Oc1ccc(Cl)cc1)C(=O)Nc1ccc(Oc2ccccc2F)cc1 [Analog 88] | 5.31 | 92% | Fold less active than pyridine 86 (WT human SLACK; WT SLACK APC IC50): 1.6 fold; Fold less potent than hit 10 (SLACK inhibition) (WT human SLACK): 3.5 fold
CC(C)(Oc1ccc(Cl)cc1)C(=O)Nc1ccc(Oc2ccccc2F)cn1 [Analog 89] | < 5.00 | 52% | WT SLACK inhibition, result in words (WT human SLACK): only weak inhibitors
CC(C)(Oc1ccc(Cl)cc1)C(=O)Nc1cnc(Oc2ccccc2F)cn1 [Analog 90] | < 5.00 | 50% | WT SLACK inhibition, result in words (WT human SLACK): only weak inhibitors
Cc1cccc(CC(=O)Nc2cnn(-c3cccc(C(=O)NCc4ccccc4-n4cncn4)c3)c2)c1 [Compound 1] |  |  | hERG (Kv11.1) channel blockade (hERG (Kv11.1) channel): almost completely blocked the channel; pIC50 (WT SLACK): 5.49
O=C(Nc1cccc(C(F)(F)F)c1)c1ccc2nc(N3C(=O)c4ccccc4C3=O)sc2c1 [Compound 2] |  |  | hERG (Kv11.1) channel blockade (hERG (Kv11.1) channel): 10–20%; pIC50 (WT SLACK): 5.52
O=C(Nc1cccc(C(F)(F)F)c1)c1ccc(CSc2nnnn2-c2ccccc2)cc1 [Compound 3] |  |  | hERG (Kv11.1) channel blockade (hERG (Kv11.1) channel): 45%; pIC50 (WT SLACK): 5.80
O=C(N[C@@H]1CCc2cc(Cl)ccc21)c1ccc(S(=O)(=O)N2CCCC2)s1 [Compound 5] |  |  | pIC50 (SLACK): > 6.00; SLACK IC50 (SLACK): less than one micromolar
